Assay results from paper PMC10895678 (Journal of Medicinal Chemistry, 2024).
Converted amounts (≈) assume the structure as drawn. “And” between values parts separate entries of the source, which are not always exact repeats. Equal values may be shown once. Read-outs that look alike come from different tables or passages of the source.

Key:
M. bovis BCG = test: microbe, parasite or virus in culture; type: cell-based, Mycobacterium bovis BCG
[1] = Mouse PK, combined (cassette) dosing of BGAz-001–005; type: in vivo, KM mice; set-up: AUMC(0-t) / VRT(0-t) / λz: unit not given here; conditions: for MRT last: read-out: MRT(0-t); for MRT inf: read-out: MRT(0-∞); for Vd/F: read-out: Vz/F
Text: Methods for combined single dosing (BGAz001–005) and dosing of single compounds multiple times (BGAz004 and BGAz005) are described in detail in the Supporting Information (PK Data).
Report on PK Results of Combined Dosing with BGAz-001–005
1 Materials and instrument combined dosing
An MS2 Turnover type oscillator was purchased from IKA Work’s Guangzhou (China), and a 5415R ChromatographicanalyseswereconductedusinganAgilent1290InfinityIIhighperformanceliquidchromatography andAgilentTechnologies6470TripleQuadLC/MS.Propranolol(≥90%inpurity,internalstandard,IS)waspurchased fromtheSigmaChemicalCo.(China).Formicacid(HPLCgrade)andmethanol(HPLCgrade)werepurchasedfrom DIKMACo.(China).Allchemicalsandsolventswereanalyticalgrade.WaterwaspurifiedusingaMillipore(AK,USA) laboratoryultra-purewatersystem(0.2μmfilter).
KMmice,weighing25–35g(BeijingVitalRiverLaboratoryAnimalTechnologyCo.,Ltd.,China)wereutilisedforthe studies.The protocols were approved by the Animal Care and Use Committee, GIBH. Animals were maintained on standard animal chow and waterad libitum, in a climate-controlled room (23±1 °C 30–70% relative humidity, a minimumof tenexchangesof roomairperhouranda12hlight/darkcycle)foroneweekpriortoexperiments.
3 Pharmacokinetic studies
Compounds BGAz-001 ，BGAz-002 ，BGAz-003 ，BGAz-004 and BGAz-005 were dissolved mixed in a solution containing DMSO (2%),ethanol (4%), Cremophor EL (4%) and ddH2O (90%); Pharmacokinetic propertiesof KM (male) were determined following IV, PO and IP administration. Animals were randomly distributed into three experimentalgroups(n=4).ThePOgroupwasgivenmixedsolutionwith5mg/kgbygastricgavage.TheIVgroup was dosed with mixed solution 1mg/kg byinjection into the tail vein. The IP group was dosed with mixed solution 1mg/kg by intraperitoneal injection. After single administration, whole blood samples (100 μL) were obtained from the orbital venousplexus atthe followingtime pointsafter dosing:5, 15,30 minand 1,3, 5,8, 24hour (PO and IP groups) and at the following time points after dosing 2, 10, 30min and 1, 3, 5, 8,24 hour (IV group). Wholeblood samples were collected in heparinised tubes. The plasma fraction was immediately separated by centrifugation. The micewerehumanelyeuthanasiabycarbondioxide24hoursafterexperimentwithoutpain.
4 Plasma sample and brain sample analysis
4.1 Standard curve sample preparation
ThecompoundsweredissolvedinDMSO(2mg/mL)anddilutedwithtoseriesconcentration(methanol:H 2O,1:1,10 μL) and blank plasma (50 μL) were added to 1.5 mL tubes and vortexed for 3 min, then acetonitrile-containing internalstandard(150μL)wasaddedandvortexedforafurther5min,andsubsequentlyspuninacentrifugeat13000 […]
4.2 Plasma and preparation
Plasmasampleswerepreparedusingaproteinprecipitationmethod.Solution(10μL,methanolH 2O,1:1)andplasma samples(50μL)wereaddedto1.5mLtubesandvortexfor3min,thenacetonitrile-containinginternalstandard(150 μL)wasaddedandvortexfor5min,andsubsequentlyspuninacentrifugeat13000× gfor40minat4°C.
Aftercentrifugation,supernatant(100μL)wastransferto96wellplatesandanalysedbyLC-MS/MSusinganAgilent 1290InfinityIIHPLCandanAgilentTechnologies6470TripleQuadLC/MS.

[2] = IP 1 mg/kg, cassette, mean of animals
[3] = IV 1 mg/kg, cassette, mean of animals
[4] = PO 5 mg/kg, cassette, mean of animals
[5] = male, KM, mouse, plasma, IP 1 mg/kg, cassette
[6] = male, KM, mouse, plasma, IP 1 mg/kg, cassette, mean of animals
[7] = male, KM, mouse, plasma, IV 1 mg/kg, cassette
[8] = male, KM, mouse, plasma, IV 1 mg/kg, cassette, mean of animals
[9] = male, KM, mouse, plasma, PO 5 mg/kg, cassette
[10] = male, KM, mouse, plasma, PO 5 mg/kg, cassette, mean of animals

Q: Which results are given for `FC(F)(F)Oc1ccc(C2CC(CN3CCCC3)N2Cc2ccccc2OC(F)(F)F)cc1` (stereo not shown) [BGAz-002]?
A: MIC99 (M. bovis BCG; Mycobacterium tuberculosis variant bovis BCG, BCG, read-out: BCG MIC99): 15 µM (≈ 7.12 µg/mL); MIC50 (M. bovis BCG; Mycobacterium tuberculosis variant bovis BCG, BCG, read-out: MIC50 BCG): 14 µM (≈ 6.64 µg/mL); MIC99 (M. bovis BCG; Mycobacterium tuberculosis variant bovis BCG, BCG, read-out: MIC99 BCG): 15 µM (≈ 7.12 µg/mL); increase in activity against M. bovis BCG compared to BGAz-001 (M. bovis BCG; fold, from MIC99): approximately three- to four-fold increase; AUC(0-t) [1, 2]: 390.877 µg; AUC(0-∞) [1, 2]: 629.982 µg; AUMC(0-t) [1, 2]: 3917.162 **μg; AUMC(0-∞) [1, 2]: 17064.651 **μg; CLz/F [1, 2]: 1.79 L/kg; C_last [1, 2]: 8.556 µg; R_AUC(t/∞) [1, 2]: 67.725%; VRT(0-t) [1, 2]: 72.869 ^2; VRT(0-∞) [1, 2]: 649.236 ^2; λz [1, 2]: 0.051 1/; AUC(0-∞) ([1]; IP 1 mg/kg, cassette, summary table): 629.982 µg·h; AUC(0-t) [1, 3]: 395.775 µg; AUC(0-∞) [1, 3]: 440.39 µg; AUMC(0-t) [1, 3]: 2604.325 **μg; AUMC(0-∞) [1, 3]: 4336.305 **μg; CLz/F [1, 3]: 2.306 L/kg; C_last [1, 3]: 3.185 µg; R_AUC(t/∞) [1, 3]: 89.5%; VRT(0-t) [1, 3]: 48.868 ^2; VRT(0-∞) [1, 3]: 164.25 ^2; Vz/F [1, 3]: 28.224 L/kg; λz [1, 3]: 0.099 1/; AUC(0-∞) ([1]; IV 1 mg/kg, cassette, summary table): 440.39 µg·h; BA ([1]; PO 5 mg/kg vs IV 1 mg/kg, cassette): 57.59%; AUC(0-t) [1, 4]: 642.368 µg; AUC(0-∞) [1, 4]: 1268.031 µg; AUMC(0-t) [1, 4]: 6099.109 **μg; AUMC(0-∞) [1, 4]: 48726.538 **μg; CLz/F [1, 4]: 11.484 L/kg; C_last [1, 4]: 17.369 µg; R_AUC(t/∞) [1, 4]: 64%; VRT(0-t) [1, 4]: 48.138 ^2; VRT(0-∞) [1, 4]: 1193.792 ^2; λz [1, 4]: 0.025 1/; AUC(0-∞) ([1]; PO 5 mg/kg, cassette, summary table): 1268.03 µg·h; Cmax ([1]; male, KM, mouse, plasma, ip, 1 mg/kg, IP 1 mg/kg, cassette, mean of animals, read-out: Cmax): 40 ng/mL; Tmax ([1]; male, KM, mouse, plasma, ip, 1 mg/kg, IP 1 mg/kg, cassette, mean of animals, read-out: Tmax): 0.167 h; Cmax ([1]; male, KM, mouse, plasma, ip, 1 mg/kg, IP 1 mg/kg, cassette, summary table, read-out: Cmax): 40 ng/mL; half-life ([1]; male, KM, mouse, plasma, ip, 1 mg/kg, IP 1 mg/kg, cassette, summary table, read-out: T1/2 (converted)): 16.1 h; Tmax ([1]; male, KM, mouse, plasma, ip, 1 mg/kg, IP 1 mg/kg, cassette, summary table, read-out: Tmax): 0.167 h; Cmax ([1]; male, KM, mouse, plasma, iv, 1 mg/kg, IV 1 mg/kg, cassette, mean of animals, read-out: Cmax): 189 ng/mL; Tmax ([1]; male, KM, mouse, plasma, iv, 1 mg/kg, IV 1 mg/kg, cassette, mean of animals, read-out: Tmax): 0.033 h; Cmax ([1]; male, KM, mouse, plasma, iv, 1 mg/kg, IV 1 mg/kg, cassette, summary table, read-out: Cmax): 189 ng/mL; half-life ([1]; male, KM, mouse, plasma, iv, 1 mg/kg, IV 1 mg/kg, cassette, summary table, read-out: T1/2 (converted)): 8.35 h; Tmax ([1]; male, KM, mouse, plasma, iv, 1 mg/kg, IV 1 mg/kg, cassette, summary table, read-out: Tmax): 0.033 h; AUC(0-inf) ([1]; male, KM, mouse, plasma, po, 5 mg/kg, 5 mg/kg PO, cassette dosing, read-out: AUC0-inf): 1270 ng·h/mL; Cmax ([1]; male, KM, mouse, plasma, po, 5 mg/kg, 5 mg/kg PO, cassette dosing, read-out: Cmax (Mouse, P.O.)): 53.9 ng/mL; half-life ([1]; male, KM, mouse, plasma, po, 5 mg/kg, 5 mg/kg PO, cassette dosing, read-out: T1/2 (Mouse, P.O.) (converted)): 24.9 h; Tmax ([1]; male, KM, mouse, plasma, po, 5 mg/kg, 5 mg/kg PO, cassette dosing, read-out: Tmax (Mouse, P.O.)): 1.87 h; Cmax ([1]; male, KM, mouse, plasma, po, 5 mg/kg, PO 5 mg/kg, cassette, mean of animals, read-out: Cmax): 53.9 ng/mL; Tmax ([1]; male, KM, mouse, plasma, po, 5 mg/kg, PO 5 mg/kg, cassette, mean of animals, read-out: Tmax): 1.88 h; Cmax ([1]; male, KM, mouse, plasma, po, 5 mg/kg, PO 5 mg/kg, cassette, summary table, read-out: Cmax): 53.9 ng/mL; half-life ([1]; male, KM, mouse, plasma, po, 5 mg/kg, PO 5 mg/kg, cassette, summary table, read-out: T1/2 (converted)): 24.9 h; Tmax ([1]; male, KM, mouse, plasma, po, 5 mg/kg, PO 5 mg/kg, cassette, summary table, read-out: Tmax): 1.88 h; concentration at 0.083 h [1, 5]: 37.4 ng/mL and 80 nM; concentration at 0.25 h [1, 5]: 80 nM and 38.8 ng/mL; concentration at 0.5 h [1, 5]: 70 nM and 32.6 ng/mL; concentration at 1 h [1, 5]: 50 nM and 25.8 ng/mL; concentration at 3 h [1, 5]: 50 nM and 24 ng/mL; concentration at 5 h [1, 5]: 40 nM and 17 ng/mL; concentration at 8 h [1, 5]: 30 nM and 15 ng/mL; concentration at 24 h [1, 5]: 30 nM and 12.4 ng/mL; MRT last [1, 6]: 10.1 h; MRT inf [1, 6]: 23.7 h; Vd/F [1, 6]: 36.8 L/kg; concentration at 0.033 h ([1]; male, KM, mouse, plasma, IV 1 mg/kg, cassette, 0.033 h): 189 ng/mL and 400 nM; concentration at 0.167 h ([1]; male, KM, mouse, plasma, IV 1 mg/kg, cassette, 0.167 h): 210 nM and 98.9 ng/mL; concentration at 0.5 h [1, 7]: 130 nM and 62.5 ng/mL; concentration at 1 h [1, 7]: 100 nM and 45.6 ng/mL; concentration at 3 h [1, 7]: 60 nM and 28.3 ng/mL; concentration at 5 h [1, 7]: 40 nM and 18.3 ng/mL; concentration at 8 h [1, 7]: 30 nM and 12.5 ng/mL; concentration at 24 h [1, 7]: 10 nM and 6.16 ng/mL; C0 [1, 8]: 222 ng/mL; MRT last [1, 8]: 6.46 h; MRT inf [1, 8]: 9.9 h; concentration at 0.083 h [1, 9]: 16.4 ng/mL and 30 nM; concentration at 0.25 h [1, 9]: 50 nM and 25.1 ng/mL; concentration at 0.5 h [1, 9]: 80 nM and 37.7 ng/mL; concentration at 1 h [1, 9]: 100 nM and 49.3 ng/mL; concentration at 3 h [1, 9]: 100 nM and 49.4 ng/mL; concentration at 5 h [1, 9]: 80 nM and 40.1 ng/mL; concentration at 8 h [1, 9]: 80 nM and 36.7 ng/mL; concentration at 24 h [1, 9]: 50 nM and 22.9 ng/mL; MRT last [1, 10]: 7.92 h; MRT inf [1, 10]: 27.5 h; Vd/F [1, 10]: 104 L/kg
